Laboratory results reported in PubChem BioAssay (NCI).
Values after ≈ are worked out from the molar mass of the structure shown. Values joined by “and” are separate entries in the source; they are usually repeats but may differ in a detail not shown here. Equal entries are not always repeated.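 Each compound was tested at five concentrations against cells in 96-well plates for 48 hours. The concentration for 50% growth inhibition is given as GI50. At the TGI there is no net growth.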 Where a SMILES comes first, the peptide text is derived from it. [ ]: non-standard residue; d: D form. The star is where a group is joined. NMeF = CN[CH](Cc1ccccc1)C(=O)O; NMeV = CN[CH](C(=O)O)C(C)C; Boc = CC(C)(C)OC(=O)*; OBn = c1ccc(CO*)cc1

How the values were obtained:
Assay in all cases: DTP human tumour cell line panel, 48 h
[1] = system: UACC-62 melanoma
[2] = system: NCI-H460 lung
[3] = system: SK-MEL-5 melanoma
[4] = system: HOP-92 NSCLC
[5] = system: HL-60(TB) leukemia
[6] = system: RPMI-8226 leukemia
[7] = system: PC-3 prostate
[8] = system: UO-31 renal
[9] = system: OVCAR-8 ovarian
[10] = system: 786-0 renal
[11] = system: OVCAR-5 ovarian
[12] = system: HT29 colon
[13] = system: BT-549 breast
[14] = system: RXF 393 renal

SMILES: S=C1NC2=C(CSC/C2=C\c2ccc(Cl)cc2)C(c2ccc(Cl)cc2)N1 (configuration not stated)
- TGI [1]: > 100 µM
- TGI [2]: > 100 µM
- TGI [3]: 37.3 µM
- TGI [4]: 88.4 µM
- TGI [5]: 70.7 µM
- TGI [6]: 94.5 µM
- TGI [7]: > 100 µM
- TGI [8]: > 100 µM
- TGI [9]: > 100 µM
- TGI [10]: 84 µM
- TGI [11]: > 100 µM
- TGI [12]: > 100 µM

SMILES: Cc1nc2nc(C)n(CCN3CCOCC3)c(=O)c2c(-c2cccc([N+](=O)[O-])c2)c1C(=O)CCCCCCCCCCN1CCC(c2ccccc2)(c2ccccc2)CC1
- GI50 [3]: 2.3 µg/mL (≈ 2.83 µM)
- TGI [3]: 4.3 µg/mL
- GI50 [4]: 0.0976 µg/mL
- TGI [4]: 1.25 µg/mL
- GI50 [8]: 1.71 µg/mL (≈ 2.1 µM)
- TGI [8]: 3.52 µg/mL
- GI50 [11]: 2.07 µg/mL (≈ 2.55 µM)
- TGI [11]: 4.03 µg/mL
- GI50 [13]: 2.33 µg/mL (≈ 2.87 µM)
- TGI [13]: 4.48 µg/mL

SMILES: Cn1c(=O)c2ccccc2[n+]2c(-c3cccc([N+](=O)[O-])c3)csc12
- TGI [1]: > 100 µM
- TGI [2]: > 100 µM
- TGI [3]: > 100 µM
- TGI [4]: > 100 µM
- TGI [5]: 62.8 µM
- TGI [6]: > 100 µM
- TGI [14]: > 100 µM
- TGI [7]: > 100 µM
- TGI [8]: > 100 µM
- TGI [9]: > 100 µM
- TGI [10]: > 100 µM
- TGI [11]: > 100 µM
- TGI [12]: > 100 µM

SMILES: Cc1ccc2[nH]c3c(c(=O)n(C)c(=O)n3C)c2c1
- TGI [1]: > 100 µM
- TGI [3]: > 100 µM
- TGI [4]: > 100 µM
- TGI [5]: > 100 µM
- TGI [6]: > 100 µM
- TGI [8]: > 100 µM
- TGI [9]: > 100 µM
- TGI [10]: > 100 µM
- TGI [11]: > 100 µM
- TGI [12]: > 100 µM
- TGI [13]: > 100 µM

SMILES: CCCCCCCCOC(=O)C12Oc3ccc(-c4ccc5c(c4O)C(O)=C4C(=O)CC(C)C(O)C4(C(=O)OCCCCCCCC)O5)c(O)c3C(O)=C1C(=O)CC(C)C2O (configuration not stated)
- TGI [1]: 99.3 µM
- TGI [2]: > 100 µM
- TGI [3]: 48.7 µM
- TGI [4]: 42.5 µM
- TGI [5]: 9.61 µM
- TGI [14]: 11.3 µM
- TGI [7]: > 100 µM
- TGI [8]: 92.2 µM
- TGI [9]: 35 µM
- TGI [10]: > 100 µM
- TGI [11]: 96.2 µM
- TGI [12]: > 100 µM
- TGI [13]: 41.9 µM

SMILES: CCc1n[nH]c(=O)n1CC
- TGI [1]: > 100 µM
- TGI [2]: > 100 µM
- TGI [3]: > 100 µM
- TGI [4]: > 100 µM
- TGI [5]: > 100 µM
- TGI [6]: > 100 µM
- TGI [8]: > 100 µM
- TGI [9]: > 100 µM
- TGI [10]: > 100 µM
- TGI [11]: > 100 µM
- TGI [12]: > 100 µM
- TGI [13]: > 100 µM

SMILES: Cc1cc(O)c2c(c1)C(=O)c1c(c(O)cc(O)c1-c1c(O)cc(O)c3c1C(=O)c1cc(C)cc(O)c1C3=O)C2=O
- TGI [1]: 25.4 µM
- TGI [2]: 55.3 µM
- TGI [3]: 30.6 µM
- TGI [4]: 34.4 µM
- TGI [5]: 18.6 µM
- TGI [6]: 32.9 µM
- TGI [14]: 76.5 µM
- TGI [8]: 15.8 µM
- TGI [9]: 47 µM
- TGI [11]: 85 µM
- TGI [12]: 45 µM

SMILES: Nc1nc(SCC(=O)c2ccccc2)c2[nH]cnc2n1
- TGI [1]: > 100 µM
- TGI [2]: > 100 µM
- TGI [3]: > 100 µM
- TGI [4]: > 100 µM
- TGI [5]: > 100 µM
- TGI [6]: > 100 µM
- TGI [9]: > 100 µM
- TGI [10]: > 100 µM
- TGI [11]: > 100 µM
- TGI [12]: > 100 µM

SMILES: C/C(O)=C(\C=N\C(=S)N=Nc1c(O)[nH]c2ccccc12)C(=O)Nc1ccccc1C
- TGI [1]: > 100 µM
- TGI [2]: > 100 µM
- TGI [3]: > 100 µM
- TGI [4]: > 100 µM
- TGI [5]: > 100 µM
- TGI [14]: > 100 µM
- TGI [8]: > 100 µM
- TGI [9]: > 100 µM
- TGI [10]: > 100 µM
- TGI [11]: > 100 µM
- TGI [12]: > 100 µM
- TGI [13]: > 100 µM

SMILES: C/C(=C\COP(=O)(O)OP(=O)(O)O)CCCCCCOCc1ccccc1
- TGI [1]: > 100 µM
- TGI [2]: > 100 µM
- TGI [3]: > 100 µM
- TGI [4]: > 100 µM
- TGI [5]: > 100 µM
- TGI [6]: > 100 µM
- TGI [14]: > 100 µM
- TGI [8]: > 100 µM
- TGI [9]: > 100 µM
- TGI [10]: > 100 µM
- TGI [11]: > 100 µM
- TGI [12]: > 100 µM
- TGI [13]: > 100 µM

SMILES: Cc1ccc(Nc2cccc3c2C(=O)c2cccc(Nc4ccc(C)cc4S(=O)(=O)O)c2C3=O)c(S(=O)(=O)O)c1
- TGI [1]: > 100 µM
- TGI [2]: > 100 µM
- TGI [3]: > 100 µM
- TGI [5]: > 100 µM
- TGI [6]: > 100 µM
- TGI [14]: > 100 µM
- TGI [8]: > 100 µM
- TGI [9]: > 100 µM
- TGI [10]: > 100 µM

SMILES: CC(=O)[O-].CC(=O)[O-].O=C(N/N=C/c1cc(Cl)cc(Cl)c1[OH2+])c1ccncc1.[Mn+2]
- TGI [1]: 5.54 µM
- TGI [2]: 15.8 µM
- TGI [3]: 11 µM
- GI50 [4]: 4.71 µM
- TGI [4]: 9.91 µM
- TGI [5]: 1.12 µM
- TGI [6]: 8.88 µM
- TGI [14]: 20.7 µM
- TGI [8]: 18.6 µM
- TGI [9]: 10.1 µM
- TGI [10]: 15.6 µM
- TGI [11]: 8.49 µM
- TGI [12]: 31.6 µM

SMILES: CC(C)C(NC(=O)OC(C)(C)C)C(=O)N(C)C(Cc1ccccc1)C(=O)N(C)C(C(=O)OCc1ccccc1)C(C)C (stereo not drawn) (Boc-Val-[NMeF]-[NMeV]-OBn; configuration not given here)
- TGI [1]: > 100 µM
- TGI [2]: > 100 µM
- TGI [3]: 44.6 µM
- TGI [5]: > 100 µM and 53.9 µM
- GI50 [6]: 10.8 µM and 25.3 µM
- TGI [6]: > 100 µM
- TGI [8]: > 100 µM
- TGI [9]: > 100 µM
- TGI [10]: > 100 µM
- TGI [12]: 32.3 µM and > 100 µM

SMILES: c1ccc(C2=NN2c2ccccc2)cc1
- TGI [1]: > 100 µM
- TGI [2]: > 100 µM
- TGI [3]: > 100 µM
- TGI [4]: > 100 µM
- TGI [14]: > 100 µM
- TGI [7]: > 100 µM
- TGI [8]: > 100 µM
- TGI [9]: > 100 µM
- TGI [11]: > 100 µM
- TGI [12]: > 100 µM
- TGI [13]: > 100 µM

SMILES: Cc1cc(=O)oc2c1cc1ccc3cccc4ccc2c1c34
- TGI [1]: > 100 µM
- TGI [2]: > 100 µM
- TGI [3]: > 100 µM
- TGI [4]: > 100 µM
- TGI [5]: > 100 µM
- TGI [6]: > 100 µM
- TGI [8]: > 100 µM
- TGI [9]: > 100 µM
- TGI [12]: > 100 µM

SMILES: O[C@@]1(C#Cc2ccc3c(c2)OCO3)CCC[C@H]1NCc1ccccc1
- TGI [1]: 36.4 µM
- TGI [2]: 69 µM
- TGI [3]: 36.2 µM
- TGI [4]: 38 µM
- TGI [5]: 39.1 µM
- TGI [6]: 56 µM
- TGI [14]: 86.2 µM
- TGI [7]: 51.3 µM
- TGI [8]: 43.9 µM
- TGI [9]: 59 µM
- TGI [10]: 31.3 µM
- TGI [11]: > 100 µM
- TGI [12]: 44.9 µM

SMILES: CCN(CC)CCNc1ccc2ncn3c4ccc(OC)cc4c(=O)c1c23
- TGI [1]: 33.9 µM
- TGI [2]: 5.52 µM
- TGI [3]: 20 µM
- TGI [4]: 23 µM
- TGI [5]: 18.7 µM
- TGI [14]: 7.69 µM
- TGI [7]: 18.8 µM
- TGI [8]: 11.8 µM
- TGI [9]: 11.8 µM
- TGI [10]: 15.5 µM
- TGI [11]: 24 µM
- TGI [12]: 8.14 µM
- TGI [13]: 33 µM

SMILES: COC(=O)/C=C/CCC#Cc1ccccc1C#CCC/C=C/C(=O)OC
- TGI [1]: > 100 µM
- TGI [2]: > 100 µM
- TGI [4]: 85.4 µM
- TGI [5]: 9.63 µM
- TGI [14]: 27 µM
- TGI [7]: > 100 µM
- TGI [8]: > 100 µM
- TGI [9]: 26 µM
- TGI [10]: 53.2 µM
- TGI [11]: > 100 µM
- TGI [12]: 40.4 µM
- TGI [13]: > 100 µM
